Results published in PubChem BioAssay (NCI).
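Protocol summary: plate cells (96-well), add compound at 5 concentrations, incubate 48 h, interpolate endpoints linearly. At the TGI there is no net growth.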

Legend:
Test in all cases: growth of human tumour cells (NCI), 48 h
[1] = system: IGROV1 ovarian
[2] = system: ACHN renal
[3] = system: SN12C renal
[4] = system: SNB-75 CNS
[5] = system: MOLT-4 leukemia
[6] = system: OVCAR-5 ovarian
[7] = system: COLO 205 colon
[8] = system: 786-0 renal
[9] = system: SK-MEL-2 melanoma
[10] = system: EKVX NSCLC
[11] = system: NCI-H522 lung
[12] = system: K-562 leukemia
[13] = system: UACC-62 melanoma
[14] = system: SNB-19 CNS
[15] = system: HL-60(TB) leukemia
[16] = system: RXF-631 renal
[17] = system: SNB-78 CNS
[18] = system: SF-268 CNS
[19] = system: UO-31 renal
[20] = system: SW-620 colon
[21] = system: HOP-18 NSCLC
[22] = system: DMS 273 small cell lung
[23] = system: TK-10 renal
[24] = system: HCT-15 colon
[25] = system: SK-MEL-28 melanoma
[26] = system: KM12 colon
[27] = system: DLD-1 colon
[28] = system: RXF 393 renal
[29] = system: NCI-H23 lung
[30] = system: HOP-92 NSCLC
[31] = system: DMS 114 small cell lung
[32] = system: U251 CNS
[33] = system: KM20L2 colon
[34] = system: SF-295 CNS
[35] = system: LOX IMVI melanoma
[36] = system: SK-OV-3 ovarian
[37] = system: OVCAR-8 ovarian
[38] = system: OVCAR-3 ovarian
[39] = system: A549 NSCLC
[40] = system: MALME-3M melanoma
[41] = system: RPMI-8226 leukemia
[42] = system: CCRF-CEM leukemia
[43] = system: CAKI-1 renal
[44] = system: HCC-2998 colon
[45] = system: M19-MEL melanoma
[46] = system: SK-MEL-5 melanoma
[47] = system: HOP-62 NSCLC
[48] = system: SF-539 CNS
[49] = system: A498 renal
[50] = system: NCI-H460 lung
[51] = system: HCT-116 colon
[52] = system: HT29 colon
[53] = system: SR leukemia
[54] = system: M14 melanoma
[55] = system: UACC-257 melanoma
[56] = system: LXFL 529 NSCLC

**Q.** What does the source list for `COc1ccc(/C=C/C(=O)c2sc(Nc3ccc([N+](=O)[O-])cc3)nc2C)cc1`?
**A.** TGI [1]: > 100 µM; TGI [2]: > 100 µM; TGI [3]: > 100 µM; TGI [4]: > 100 µM; TGI [5]: 50.7 µM; TGI [6]: > 100 µM; TGI [7]: > 100 µM; TGI [8]: > 100 µM; TGI [9]: 48.6 µM; TGI [10]: > 100 µM; TGI [11]: 51.1 µM; TGI [12]: 93.6 µM; TGI [13]: > 100 µM; TGI [14]: > 100 µM; TGI [15]: 67.6 µM; TGI [16]: > 100 µM; TGI [17]: > 100 µM; TGI [18]: > 100 µM; TGI [19]: 91.9 µM; TGI [20]: > 100 µM; TGI [21]: > 100 µM; TGI [22]: > 100 µM; TGI [23]: > 100 µM; TGI [24]: > 100 µM; TGI [25]: > 100 µM; TGI [26]: > 100 µM; TGI [27]: > 100 µM; TGI [28]: 87.9 µM; TGI [29]: 85 µM; TGI [30]: 81.5 µM; TGI [31]: > 100 µM; TGI [32]: > 100 µM; TGI [33]: > 100 µM; TGI [34]: 81.5 µM; TGI [35]: > 100 µM; TGI [36]: > 100 µM; TGI [37]: > 100 µM; TGI [38]: 89.4 µM; TGI [39]: > 100 µM; TGI [40]: > 100 µM; TGI [41]: 47.9 µM; TGI [42]: 82 µM; TGI [43]: > 100 µM; TGI [44]: 83.5 µM; TGI [45]: > 100 µM; TGI [46]: 46.8 µM; TGI [47]: > 100 µM; TGI [48]: > 100 µM; TGI [49]: > 100 µM; TGI [50]: > 100 µM

**Q.** For `CN(C)[C@@H]1C(=O)C(C(=O)NCN2CCN(C(=N)N=C(N)N)CC2)=C(O)[C@@]2(O)C(=O)C3=C(O)c4c(O)cccc4[C@@](C)(O)[C@H]3C[C@@H]12`, which TGI [1] is on record?
**A.** The TGI was 22 µM.

**Q.** And the TGI [2]?
**A.** Its TGI is > 100 µM.

**Q.** What about the TGI [3] of the same compound?
**A.** Its TGI is 15.1 µM.

**Q.** What about the TGI [4] of the same compound?
**A.** The TGI was 0.338 µM.

**Q.** And the TGI [5]?
**A.** Its TGI is 0.349 µM.

**Q.** And the TGI [6]?
**A.** Its TGI is 0.709 µM.

**Q.** What about the TGI [7] of the same compound?
**A.** Its TGI is 14.1 µM.

**Q.** What about the TGI [9] of the same compound?
**A.** The TGI was 0.255 µM.

**Q.** And the TGI [10]?
**A.** Its TGI is 0.624 µM.

**Q.** What about the TGI [11] of the same compound?
**A.** The TGI was 0.143 µM.

**Q.** And the TGI [12]?
**A.** Its TGI is 10.5 µM.

**Q.** What about the TGI [14] of the same compound?
**A.** The TGI was 15.9 µM.

**Q.** And the TGI [16]?
**A.** Its TGI is 0.763 µM.

**Q.** What about the TGI [17] of the same compound?
**A.** Its TGI is 0.471 µM.

**Q.** What about the TGI [19] of the same compound?
**A.** The TGI was 0.982 µM.

**Q.** And the TGI [20]?
**A.** The TGI was 11 µM.

**Q.** And the TGI [22]?
**A.** Its TGI is 0.922 µM.

**Q.** What about the TGI [23] of the same compound?
**A.** Its TGI is 14.8 µM.

**Q.** And the TGI [51]?
**A.** The TGI was 17.8 µM.

**Q.** What about the TGI [24] of the same compound?
**A.** Its TGI is 12.2 µM.

**Q.** And the TGI [25]?
**A.** Its TGI is 0.541 µM.

**Q.** What about the TGI [52] of the same compound?
**A.** The TGI was 16.7 µM.

**Q.** What about the TGI [26] of the same compound?
**A.** Its TGI is 16.9 µM.

**Q.** And the TGI [27]?
**A.** The TGI was 19.6 µM.

**Q.** What about the TGI [28] of the same compound?
**A.** The TGI was 0.245 µM.

**Q.** And the TGI [29]?
**A.** The TGI was 0.33 µM.

**Q.** And the TGI [30]?
**A.** The TGI was 0.635 µM.

**Q.** What about the TGI [53] of the same compound?
**A.** The TGI was 2.3 µM.

**Q.** What about the TGI [32] of the same compound?
**A.** Its TGI is 0.809 µM.

**Q.** And the TGI [33]?
**A.** Its TGI is 11.6 µM.

**Q.** And the TGI [34]?
**A.** Its TGI is 6.82 µM.

**Q.** What about the TGI [54] of the same compound?
**A.** The TGI was 1.14 µM.

**Q.** What about the TGI [35] of the same compound?
**A.** The TGI was 2.04 µM.

**Q.** What about the TGI [36] of the same compound?
**A.** The TGI was 15.8 µM.

**Q.** What about the TGI [55] of the same compound?
**A.** The TGI was 6.29 µM.

**Q.** And the TGI [37]?
**A.** The TGI was 11.2 µM.

**Q.** And the TGI [38]?
**A.** Its TGI is 34.8 µM.

**Q.** And the TGI [40]?
**A.** The TGI was 0.566 µM.

**Q.** And the TGI [41]?
**A.** The TGI was 14.7 µM.

**Q.** And the TGI [42]?
**A.** Its TGI is > 100 µM.

**Q.** What about the TGI [56] of the same compound?
**A.** The TGI was 11.1 µM.

**Q.** What about the TGI [43] of the same compound?
**A.** The TGI was > 100 µM.

**Q.** And the TGI [45]?
**A.** Its TGI is 2.28 µM.

**Q.** And the TGI [46]?
**A.** The TGI was 0.431 µM.

**Q.** What about the TGI [47] of the same compound?
**A.** The TGI was 3.99 µM.

**Q.** And the TGI [48]?
**A.** The TGI was 0.415 µM.

**Q.** What about the TGI [49] of the same compound?
**A.** The TGI was 4.88 µM.

**Q.** And the TGI [50]?
**A.** The TGI was 20.2 µM.
